Measured values as given in patent US20240300980A1, “HETEROCYCLIC COMPOUNDS AS KRAS INHIBITOR, AND PREPARATION THEREFOR AND USE THEREOF IN TREATMENT” (SHANGHAI KECHOW PHARMA, INC., priority 2021, published 2024).

Test system: AGS cells (KRAS^G12D)
Experiment: Detection of cell proliferation in vitro by MTT/MTS method (cell activity experiment)
Type: cell-based
Details: Homo sapiens, AGS, 72 h, AGS cells; MTT/MTS; 3 days of drug treatment; read-out: AGS IC50
Experimental: The above cells were cultured in a complete medium containing 10% fetal bovine serum, 100 IU/mL penicillin and 100 jag/mL streptomycin, in the aseptic incubator with 95% relative humidity and 5% CO2 concentration.
2. Reagents: F12K, D-PBS, FBS, Penicillin Streptomycin, Tryple, MTT (5 mg/mL)
Appropriate amount of compound powder was weighed in a 1.5 mL centrifuge tube, then the corresponding volume of dimethyl sulfoxide (DMSO) was added to form a 20 mM reserve solution. The solution was packed separately and stored in a refrigerator at −20° C. away from light.
The cells were inoculated in a cell culture bottle, added an appropriate amount of complete medium, and cultured in a sterile incubator. When the degree of cell confluence reached more than 80%, subculture was carried out.
The adherent cells in logarithmic growth phase were digested by trypsin or the suspension cells were collected by centrifugation and counted. 90 μL cell suspension was inoculated into 96-well plate according to the cell inoculation density of 1000 cells per well, and 10 μL of 10-fold final concentration compound diluted by culture medium was added 24 hours later. Compared with the hole with the same volume of 5% DMSO as control, the final concentration of DMSO was 0.5%. After 3 days of drug treatment, the cell viability was detected by MTT. The specific methods are as follows: 10 μL MTT per well was added into the incubator for 4 hours, the supernatant was discarded and 150 μL DMSO was added to dissolve the crystal methylazan, and the absorbance of 490 nm was detected by enzyme labeling instrument, or 10 μL MITS per well was added to the incubator for 4 hours, and […] absorbance was detected directly by enzyme labeling instrument. GraphPad Prism 6 software makes dose-effect curve and calculates IC50.

Row | SMILES | IC50 [nM]
1 | C#Cc1c(F)ccc2cc(O)cc(-c3ncc4c(N5CC6CCCNC6C5)nc(OC[C@@]56CCCN5C[C@H](F)C6)nc4c3F)c12 (stereo partly drawn) [Example 52, 5-ethynyl-6-fluoro-4-(8-fluoro-2-(((2R,7aS)-2-fluorotetrahydro-1H-pyrrolizin-7a(5H)-yl)methoxy)-4-(octahydro-6H-pyrrolo[3,4-b]pyridin-6-yl)pyrido[4,3-d]pyrimidin-7-yl)naphthalen-2-ol] | > 2500
2 | CC[C@@H]1CCCc2cc(O)cc(-c3ncc4c(N5CC6CCC(C5)N6)nc(OC[C@@]56CCCN5C[C@H](F)C6)nc4c3F)c21 (single isomer, unassigned) [Example 228, (R)-4-(4-((1R,5S)-3,8-diazabicyclo[3.2.1]octan-3-yl)-8-fluoro-2-(((2R,7aS)-2-fluorotetrahydro-1H-pyrrolizin-7a(5H)-yl)methoxy)pyrido[4,3-d]pyrimidin-7-yl)-5-ethyl-5,6,7,8-tetrahydronaphthalen-2-ol or (S)-4-(4-((1R,5S)-3,8-diazabicyclo[3.2.1]octan-3-yl)-8-fluoro-2-(((2R,7aS)-2-fluorotetrahydro-1H-pyrrolizin-7a(5H)-yl)methoxy)pyrido[4,3-d]pyrimidin-7-yl)-5-ethyl-5,6,7,8-tetrahydronaphthalen-2-ol] | 1090
3 | CCc1c(F)ccc2cc(O)cc(-c3cnc4c(N5C[C@H]6CC[C@@H](C5)N6)nc(OC[C@@]56CCCN5C[C@H](F)C6)nc4c3)c12 [Example 201, 4-(4-((1R,5S)-3,8-diazabicyclo[3.2.1]octan-3-yl)-2-(((2R,7aS)-2-fluorotetrahydro-1H-pyrrolizin-7a(5H)-yl)methoxy)pyrido[3,2-d]pyrimidin-7-yl)-5-ethyl-6-fluoronaphthalen-2-ol] | > 2500
4 | CCc1c(F)ccc2cc(O)cc(-c3ncc4c(N5C[C@H]6CC[C@@H](C5)S6)nc(OC[C@@]56CCCN5C[C@H](F)C6)nc4c3F)c12 [Example 24, 4-(4-((1R,5S)-8-thia-3-azabicyclo[3.2.1]octan-3-yl)-8-fluoro-2-(((2R, 7aS)-2-fluorotetrahydro-1H-pyrrolizin-7a(5H)-yl)methoxy)pyrido[4,3-d]pyrimidin-7-yl)-5-ethyl-6-fluoronaphthalen-2-ol] | 280
5 | CCc1c(F)ccc2cc(O)cc(-c3ccc4c(N5CC6CCC(C5)[S+]6[O-])nc(OC[C@@]56CCCN5C[C@H](F)C6)nc4c3F)c12 (stereo partly drawn) [Example 162, (1R,5S,8R)-3-(7-(8-ethyl-7-fluoro-3-hydroxynaphthalen-1-yl)-8-fluoro-2-(((2R,7aS)-2-fluorotetrahydro-1H-pyrrolizin-7a(5H)-yl)methoxy)quinazolin-4-yl)-8-thia-3-azabicyclo[3.2.1]octane 8-oxide] | > 2500
6 | C#Cc1c(F)ccc2cc(O)cc(-c3ccc4c(N5CC6CCC(C5)[S+]6[O-])nc(OC[C@@]56CCCN5C[C@H](F)C6)nc4c3F)c12 (stereo partly drawn) [Example 159, (1R,5S,8R)-3-(7-(8-ethynyl-7-fluoro-3-hydroxynaphthalen-1-yl)-8-fluoro-2-(((2R,7aS)-2-fluorotetrahydro-1H-pyrrolizin-7a(5H)-yl)methoxy)quinazolin-4-yl)-8-thia-3-azabicyclo[3.2.1]octane 8-oxide] | > 2500
7 | C#Cc1c(F)ccc2cc(O)cc(C3=C(F)c4nc(OC[C@@]56CCCN5C[C@H](F)C6)nc(N5C[C@H]6CC[C@@H](C5)N6)c4C4=NCCN43)c12 [Example 402, 4-(10-((1R,5S)-3,8-diazabicyclo[3.2.1]octan-3-yl)-6-fluoro-8-(((2R,7aS)-2-fluorotetrahydro-1H-pyrrolizin-7a(5H)-yl)methoxy)-2,3-dihydroimidazo[1′,2′:1,2]pyrido[4,3-d]pyrimidin-5-yl)-5-ethynyl-6-fluoronaphthalen-2-ol] | 56
8 | C#Cc1c(F)ccc2cc(O)cc(-c3ccc4c(N5CCC6(CCCS6)CC5)nc(OC[C@@]56CCCN5C[C@H](F)C6)nc4c3F)c12 [Example 109, 5-ethynyl-6-fluoro-4-(8-fluoro-2-(((2R,7aS)-2-fluorotetrahydro-1H-pyrrolizin-7a(5H)-yl)methoxy)-4-(1-thia-8-azaspiro[4.5]decan-8-yl)quinazolin-7-yl)naphthalen-2-ol] | > 2500
9 | CCC1CCc2cc(O)cc(-c3ncc4c(NCC5(N(C)C)CCC5)nc(OC[C@@]56CCCN5C[C@H](F)C6)nc4c3F)c21 (stereo partly drawn) [Example 423, 7-(4-(((1-(dimethylamino)cyclobutyl)methyl)amino)-8-fluoro-2-(((2R,7aS)-2-fluorotetrahydro-1H-pyrrolizin-7a(5H)-yl)methoxy)pyrido[4,3-d]pyrimidin-7-yl)-1-ethyl-2,3-dihydro-1H-inden-5-ol] | 55
10 | CCc1coc2cc(O)cc(-c3ccc4c(N5C[C@H]6CC[C@@H](C5)N6)nc(OC[C@@]56CCCN5C[C@H](F)C6)nc4c3F)c12 [Example 293, 4-(4-((1R,5S)-3,8-diazabicyclo[3.2.1]octan-3-yl)-8-fluoro-2-(((2R,7aS)-2-fluorotetrahydro-1H-pyrrolizin-7a(5H)-yl)methoxy)quinazolin-7-yl)-3-ethylbenzofuran-6-ol] | 121
11 | C#Cc1c(F)ccc2cc(O)cc(-c3ncc4c(N(CCNC)C5CC5)nc(OC[C@@]56CCCN5C[C@H](F)C6)nc4c3F)c12 [Example 219, 4-(4-(cyclopropyl(2-(methyl-amino)ethyl)amino)-8-fluoro-2-(((2R,7aS)-2-fluorotetrahydro-1H-pyrrolizin-7a(5H)-yl)methoxy)pyrido[4,3-d]pyrimidin-7-yl)-5-ethynyl-6-fluoronaphthalen-2-ol] | > 2500
12 | Cc1cc(N)nc(-c2ncc3c(N4C[C@H]5CC[C@@H](C4)N5)nc(OCC4(CN5CCCC5)CC4)nc3c2F)c1C1CC1 [Example 9, 6-(4-((1R,5S)-3,8-diazabicyclo[3.2.1]octan-3-yl)-8-fluoro-2-((1-(pyrrolidin-1-ylmethyl)cyclopropyl)methoxy)pyrido[4,3-d]pyrimidin-7-yl)-5-cyclopropyl-4-methylpyridin-2-amine] | > 1000
13 | CCn1cnc2cc(O)cc(-c3ncc4c(N5C[C@H]6CC[C@@H](C5)N6)nc(OC[C@@]56CCCN5C[C@H](F)C6)nc4c3F)c21 [Example 278, 7-(4-((1R,5S)-3,8-diazabicyclo[3.2.1]octan-3-yl)-8-fluoro-2-(((2R,7aS)-2-fluorotetrahydro-1H-pyrrolizin-7a(5H)-yl)methoxy)pyrido[4,3-d]pyrimidin-7-yl)-1-ethyl-1H-benzo[d]imidazol-5-ol] | > 10000
14 | C#Cc1c(F)ccc2cc(O)cc(-c3ncc4c(N5CC6CCC(C5)C6C#N)nc(OC[C@@]56CCCN5C[C@H](F)C6)nc4c3F)c12 (stereo partly drawn) [Example 62, (1R,5S,8S)-3-(7-(8-ethynyl-7-fluoro-3-hydroxynaphthalen-1-yl)-8-fluoro-2-(((2R, 7aS)-2-fluorotetrahydro-1H-pyrrolizin-7a(5H)-yl)methoxy)pyrido[4,3-d]pyrimidin-4-yl)-3-azabicyclo[3.2.1] octane-8-carbonitrile] | > 2500
15 | C#Cc1cccc2cc(O)cc(-c3ncc4c(N5CC6CCCC(C5)N6)nc(OC[C@@]56CCCN5C[C@H](F)C6)nc4c3F)c12 [Example 44, 4-(4-(3,9-diazabicyclo [3.3.1]nonan-3-yl)-8-fluoro-2-(((2R,7aS)-2-fluorotetrahydro-1H-pyrrolizin-7a(5H)-yl)methoxy)pyrido[4,3-d]pyrimidin-7-yl)-5-ethynylnaphthalen-2-ol] | 47
16 | C#Cc1c(F)ccc2cc(O)cc(-c3ccc4c(N5CC(C)(N)C5)nc(OC[C@@]56CCCN5C[C@H](F)C6)nc4c3F)c12 [Example 217, 4-(4-(3-amino-3-methylazetidin-1-yl)-8-fluoro-2-(((2R,7aS)-2-fluorotetrahydro-1H-pyrrolizin-7a(5H)-yl)methoxy)quinazolin-7-yl)-5-ethynyl-6-fluoronaphthalen-2-ol] | 835
17 | C/C=C1\C(=O)Cc2cc(O)cc(-c3ncc4c(N5C[C@H]6CC[C@@H](C5)N6)nc(OC[C@@]56CCCN5C[C@H](F)C6)nc4c3F)c21 [Example 264, (Z)-7-(4-((1R,5S)-3,8-diazabicyclo[3.2.1]octan-3-yl)-8-fluoro-2-(((2R,7aS)-2-fluorotetrahydro-1H-pyrrolizin-7a(5H)-yl)methoxy)pyrido[4,3-d]pyrimidin-7-yl)-1-ethylidene-5-hydroxy-1,3-dihydro-2H-inden-2-one] | > 10000
18 | C#Cc1c(F)ccc2cc(O)cc(-c3ncc4c(N5C[C@H]6CC[C@@H](C5)S6(=O)=O)nc(OC[C@@]56CCCN5C[C@H](F)C6)nc4c3F)c12 [Example 23, (1R,5S)-3-(7-(8-ethynyl-7-fluoro-3-hydroxynaphthalen-1-yl)-8-fluoro-2-(((2R, 7aS)-2-fluorotetrahydro-1H-pyrrolizin-7a(5H)-yl)methoxy)pyrido[4,3-d]pyrimidin-4-yl)-8-thia-3-azabicyclo[3.2.1] octane 8,8-dioxide] | 6950
19 | C#Cc1c(F)ccc2cc(O)cc(-c3ccc4c(C5C[C@H]6CC[C@@H](C5)N6)nc(OC[C@@]56CCCN5C[C@H](F)C6)nc4c3F)c12 (stereo partly drawn) [Example 137, 4-(4-((1R,5S)-8-azabicyclo[3.2.1]octan-3-yl)-8-fluoro-2-(((2R,7aS)-2-fluorotetrahydro-1H-pyrrolizin-7a(5H)-yl)methoxy)quinazolin-7-yl)-5-ethynyl-6-fluoronaphthalen-2-ol] | > 2500
